Reference: PubChem BioAssay AID330 (DTP/NCI, 2004)
Where “and” joins values, the source holds several entries; their conditions need not be identical. Equal entries are not always repeated. Toxic doses and inconclusive results are not listed. The calls were made as follows: active = survival T/C of 150% or more; inactive = T/C below 125% in these data.

Test system: P388 leukemia ip, CD2F1 mice, survival T/C
Assay: NCI In Vivo Anticancer Drug Screen. Data for tumor model P388 Leukemia (intraperitoneal) in CD2F1 (CDF1) mice
Conditions: endpoint: median survival time, higher = longer survival
Description: The antitumor activity of compounds was measured in mice bearing transplantable tumors. Survival or tumor size were measured and the results are expressed as the measurement made in the treated group (T) divided by the measurement made in the vehicle treated control group (C). The tumor model used in this assay is P388 Leukemia (intraperitoneal) in CD2F1 (CDF1) mice

[1] = dose: 12.5 mg/kg/injection, schedule: Q01DX009 (ip), vehicle: Klucel (hydroxypropylcellulose) (HPC)
[2] = dose: 25.0 mg/kg/injection, schedule: Q01DX009 (ip), vehicle: Klucel (hydroxypropylcellulose) (HPC)
[3] = dose: 50.0 mg/kg/injection, schedule: Q01DX009 (ip), vehicle: Klucel (hydroxypropylcellulose) (HPC)
[4] = dose: 100.0 mg/kg/injection, schedule: Q01DX009 (ip), vehicle: Klucel (hydroxypropylcellulose) (HPC)
[5] = dose: 25.0 mg/kg/injection, schedule: Q01DX001 (ip), vehicle: Klucel (hydroxypropylcellulose) (HPC)
[6] = dose: 50.0 mg/kg/injection, schedule: Q01DX001 (ip), vehicle: Klucel (hydroxypropylcellulose) (HPC)
[7] = dose: 100.0 mg/kg/injection, schedule: Q01DX001 (ip), vehicle: Klucel (hydroxypropylcellulose) (HPC)
[8] = dose: 200.0 mg/kg/injection, schedule: Q01DX001 (ip), vehicle: Klucel (hydroxypropylcellulose) (HPC)
[9] = dose: 50.0 mg/kg/injection, schedule: Q01DX005 (ip), vehicle: saline with Tween-80
[10] = dose: 60.0 mg/kg/injection, schedule: Q01DX005 (ip), vehicle: Klucel (hydroxypropylcellulose) (HPC)
[11] = dose: 120.0 mg/kg/injection, schedule: Q01DX005 (ip), vehicle: Klucel (hydroxypropylcellulose) (HPC)
[12] = dose: 240.0 mg/kg/injection, schedule: Q01DX005 (ip), vehicle: Klucel (hydroxypropylcellulose) (HPC)

Measured: T/C

COc1cc2c(c(OC)c1OC)-c1ccc(SC)c(=O)cc1[C@@H](NC(=O)C(F)(F)F)CC2
inactive: dose: 0.08 mg/kg/injection, schedule: Q01DX009 (ip), vehicle: Klucel (hydroxypropylcellulose) (HPC) 110 % of control and 117 % of control | dose: 0.16 mg/kg/injection, schedule: Q01DX009 (ip), vehicle: Klucel (hydroxypropylcellulose) (HPC) 120 % of control and 124 % of control

CC(=O)O.[Cd]
inactive: dose: 1.25 mg/kg/injection, schedule: Q01DX009 (ip), vehicle: saline 95 % of control | dose: 1.25 mg/kg/injection, schedule: Q04DX003 (ip), vehicle: saline 90 % of control | dose: 2.5 mg/kg/injection, schedule: Q01DX009 (ip), vehicle: saline 100 % of control | dose: 2.5 mg/kg/injection, schedule: Q04DX003 (ip), vehicle: saline 90 % of control | dose: 5.0 mg/kg/injection, schedule: Q01DX009 (ip), vehicle: saline 100 % of control | dose: 5.0 mg/kg/injection, schedule: Q04DX003 (ip), vehicle: saline 95 % of control

Cc1ccc(NS(=O)(=O)N2CCCCC2)cc1
inactive: [1] 106 % of control | [2] 95 % of control | [3] 98 % of control | [4] 116 % of control | dose: 200.0 mg/kg/injection, schedule: Q01DX009 (ip), vehicle: Klucel (hydroxypropylcellulose) (HPC) 115 % of control | dose: 400.0 mg/kg/injection, schedule: Q01DX009 (ip), vehicle: Klucel (hydroxypropylcellulose) (HPC) 113 % of control

COC(=O)CCCCCCCCCCCCCCCCCCCCCCCCCCCCCCCCC(=O)OC
inactive: [5] 88 % of control | [6] 88 % of control | [7] 87 % of control

N=c1nccnn1O
inactive: dose: 100.0 mg/kg/injection, schedule: Q04DX003 (ip), vehicle: saline with Tween-80 100 % of control | dose: 200.0 mg/kg/injection, schedule: Q04DX003 (ip), vehicle: saline with Tween-80 99 % of control | dose: 400.0 mg/kg/injection, schedule: Q04DX003 (ip), vehicle: saline with Tween-80 100 % of control

O=c1oc(-c2ccc([N+](=O)[O-])cc2Cl)nc2ccccc12
inactive: dose: 50.0 mg/kg/injection, schedule: Q01DX009 (ip), vehicle: saline 106 % of control | dose: 100.0 mg/kg/injection, schedule: Q01DX009 (ip), vehicle: saline 105 % of control | dose: 200.0 mg/kg/injection, schedule: Q01DX009 (ip), vehicle: saline 106 % of control

O=CNNc1cccc(Cl)n1
inactive: [7] 97 % of control | [8] 97 % of control | dose: 400.0 mg/kg/injection, schedule: Q01DX001 (ip), vehicle: Klucel (hydroxypropylcellulose) (HPC) 98 % of control

COc1cc(N=Nc2ccccc2)cc(/C=N\NC(=S)Nc2cccc(C)c2)c1O
inactive: [9] 87 % of control

CCN1C(=O)N(CC)C2(CC(=O)c3ccccc3O2)C1=O (centres undefined)
inactive: dose: 60.0 mg/kg/injection, schedule: Q01DX005 (ip), vehicle: saline 111 % of control | dose: 120.0 mg/kg/injection, schedule: Q01DX005 (ip), vehicle: saline 108 % of control | dose: 240.0 mg/kg/injection, schedule: Q01DX005 (ip), vehicle: saline 110 % of control

C/C=C1/CN(C)C2Cc3c([nH]c4ccccc34)C(c3cc4[nH]c5c(c4cc3OC)CCN3CC4CC(CC)C3C5(COC(=O)c3ccc(OC)c(OC)c3)C4)CC1C2C(=O)OC (centres undefined)
inactive: dose: 6.25 mg/kg/injection, schedule: Q01DX001 (ip), vehicle: Klucel (hydroxypropylcellulose) (HPC) 107 % of control | dose: 12.5 mg/kg/injection, schedule: Q01DX001 (ip), vehicle: Klucel (hydroxypropylcellulose) (HPC) 106 % of control | [5] 106 % of control and 113 % of control | [6] 104 % of control | [7] 100 % of control | [8] 100 % of control

COC1(OC)OC(c2ccccc2)=C(C#N)C(c2ccccc2)C1(OC)OC (centres undefined)
inactive: [10] 102 % of control | [11] 100 % of control | [12] 96 % of control

Cc1[nH]c(/N=C/c2ccc(N(C)C)cc2)c(C#N)c1C
inactive: dose: 60.0 mg/kg/injection, schedule: Q01DX005 (ip), vehicle: saline with Tween-80 91 % of control | dose: 120.0 mg/kg/injection, schedule: Q01DX005 (ip), vehicle: saline with Tween-80 90 % of control | dose: 240.0 mg/kg/injection, schedule: Q01DX005 (ip), vehicle: saline with Tween-80 97 % of control

CC1(C)N=C(N)N=C(N)N1c1cccc(CCCCc2ccc(S(=O)(=O)F)cc2)c1
inactive: dose: 25.0 mg/kg/injection, schedule: Q04DX003 (ip), vehicle: saline 110 % of control

CN(C)C1=NC(NC(C)(C)C)(N(C)C)OC(N(C)C)=N1 (centres undefined)
inactive: dose: 25.0 mg/kg/injection, schedule: Q01DX005 (ip), vehicle: saline 100 % of control | dose: 50.0 mg/kg/injection, schedule: Q01DX005 (ip), vehicle: saline 100 % of control | dose: 100.0 mg/kg/injection, schedule: Q01DX005 (ip), vehicle: saline 104 % of control

Cc1cccc(C)c1NC(=O)CCC(=O)C(C)C(=O)c1ccc(O)cc1 (centres undefined)
inactive: dose: 100.0 mg/kg/injection, schedule: Q01DX001 (ip), vehicle: saline with Tween-80 100 % of control | dose: 200.0 mg/kg/injection, schedule: Q01DX001 (ip), vehicle: saline with Tween-80 100 % of control | dose: 400.0 mg/kg/injection, schedule: Q01DX001 (ip), vehicle: saline with Tween-80 97 % of control

NC/C(=N\O)c1ccc2ccccc2c1
inactive: [10] 100 % of control | [11] 110 % of control | [12] 105 % of control

CC1(C)OC2(C)CCC1C1C2N1C(=O)Nc1cccc(Cl)c1 (centres undefined)
inactive: [9] 101 % of control | dose: 100.0 mg/kg/injection, schedule: Q01DX005 (ip), vehicle: saline with Tween-80 92 % of control | dose: 200.0 mg/kg/injection, schedule: Q01DX005 (ip), vehicle: saline with Tween-80 89 % of control

COC(C)(C)c1ccccc1[S+]1OC(C)(C)c2ccccc21 (centres undefined)
inactive: dose: 100.0 mg/kg/injection, schedule: Q04DX002 (ip), vehicle: suspension in saline 96 % of control | dose: 200.0 mg/kg/injection, schedule: Q04DX002 (ip), vehicle: suspension in saline 100 % of control | dose: 400.0 mg/kg/injection, schedule: Q04DX002 (ip), vehicle: suspension in saline 109 % of control

O=[N+]([O-])c1c(N2CCN(CCO)CC2)nc2ccccn12
inactive: [1] 99 % of control | [2] 91 % of control | [3] 105 % of control

O=C(O)CCC(CS)C(=O)O (centres undefined)
inactive: dose: 0.5 mg/kg/injection, schedule: Q01DX005 (ip), vehicle: saline 100 % of control | dose: 1.0 mg/kg/injection, schedule: Q01DX005 (ip), vehicle: saline 100 % of control | dose: 2.0 mg/kg/injection, schedule: Q01DX005 (ip), vehicle: saline 100 % of control | dose: 4.0 mg/kg/injection, schedule: Q01DX005 (ip), vehicle: saline 98 % of control | dose: 8.0 mg/kg/injection, schedule: Q01DX005 (ip), vehicle: saline 98 % of control | dose: 16.0 mg/kg/injection, schedule: Q01DX005 (ip), vehicle: saline 112 % of control | dose: 32.0 mg/kg/injection, schedule: Q01DX005 (ip), vehicle: saline 100 % of control | dose: 64.0 mg/kg/injection, schedule: Q01DX005 (ip), vehicle: saline 96 % of control | dose: 128.0 mg/kg/injection, schedule: Q01DX005 (ip), vehicle: saline 89 % of control

COc1cc2c[n+](C)c3c4cc(OC)c(OCc5ccccc5)cc4c(OCc4ccccc4)cc3c2cc1OC
inactive: dose: 3.12 mg/kg/injection, schedule: Q01DX005 (ip), vehicle: Klucel (hydroxypropylcellulose) (HPC) 100 % of control | dose: 6.25 mg/kg/injection, schedule: Q01DX005 (ip), vehicle: Klucel (hydroxypropylcellulose) (HPC) 100 % of control | dose: 12.5 mg/kg/injection, schedule: Q01DX005 (ip), vehicle: Klucel (hydroxypropylcellulose) (HPC) 98 % of control

O=C(NC1CCOC1=O)OCc1ccccc1 (centres undefined)
inactive: dose: 25.0 mg/kg/injection, schedule: Q01DX009 (ip), vehicle: distilled water + Tween-80 110 % of control | dose: 50.0 mg/kg/injection, schedule: Q01DX009 (ip), vehicle: distilled water + Tween-80 95 % of control | dose: 100.0 mg/kg/injection, schedule: Q01DX009 (ip), vehicle: distilled water + Tween-80 117 % of control | dose: 200.0 mg/kg/injection, schedule: Q01DX009 (ip), vehicle: distilled water + Tween-80 111 % of control

C=CCN=C(NC#N)SC
inactive: [3] 103 % of control | [4] 111 % of control
